Test [1] deals with wild-type strain of B. cineria. Type of test: cell-based, Botrytis cineria.
Test [2] concerns Botrytis cineria transformants generated using pBHt2-tk (ChGPD-HSVtk). Type of test: cell-based.
The test system of test [3] is Aspergillus fumigatus transformants generated using pBHt2-tk (ChGPD-HSVtk). The format is cell-based.
In test [4] the test system is F. oxysporum transformants generated using pBHt2-tk (ChGPD-HSVtk). The format is cell-based, Fusarium oxysporum.
The test system of test [5] is F. oxysporum O-685 transformants. The format is cell-based, Fusarium oxysporum.
The subject of test [6] is transformants of N. crassa that express HSVtk. To be noted: HSVtk-expressing transformants; cited from earlier work.
Test [7] deals with transformants of Cryptococcus neoformans that express HSVtk. As to conditions: HSVtk-expressing transformants; cited from earlier work.

Consider `O=c1[nH]c(=O)n([C@H]2C[C@H](O)[C@@H](CO)O2)cc1F` [F2dU, 5-fluoro-2′-deoxyuridine], for which the “sensitivity of wild-type strain” value in test [1] is listed as “exhibited noticeable sensitivity”. For the same molecule, the “concentration sufficient to inhibit growth” value in test [2] is reported as 5 nM. Moreover, the sensitivity of transformants entry in test [2], in test [3], in test [4], in test [6] and in test [7] was “exhibited sensitivity” throughout. For the same molecule, in test [3], the “concentration required for significant growth inhibition” value worked out at 50 µM. The “reduction of the number of transformants relative to that generated in the presence of 0 or 5 μM F2dU” value in test [5] was 2 to 4 fold.
Consider `Nc1nc(O)c2ncn(COC(CO)CO)c2n1` [Ganciclovir], for which the “concentration failing to inhibit growth” value in test [2] is on record as more than 2 mM. In addition, the sensitivity of transformants entry in test [3] and in test [4] was “exhibited sensitivity” in each case.

The values above are taken from patent US20050181509A1 (priority 2004, published 2005).
